Measurements published in PMC6424980, “Distinct G protein-coupled receptor phosphorylation motifs modulate arrestin affinity and activation and global conformation” (Nature Communications, 2019).
“Also recorded” adds a separate entry of the source.

Key:
[1] = test system: arrestin-1 mutants I72B and F197NBD with nonphosphorylated light-activated rhodopsin in ROS membranes; experiment: Ternary complex formation (site-directed fluorescence and centrifugal pull-down); format: biochemical, bovine; details: 10 µM rhodopsin in ROS, 1 µM arrestin-1 I72B or F197NBD, 100 µM peptide, pH 7
Text: Recombinant bovine arrestin-1 cloned into the pET15b vector was expressed and purified as described. The basic construct was a modified wild-type sequence that contained no native cysteines (C63A, C128S and C143A) nor tryptophans (W194F). Single cysteine residues were introduced by PCR at sites 72 or 197 as previously described. The I72C mutant was labeled with monobromobimane (Thermo Fisher) and is referred to as I72B. The F197C mutant was labeled with N,N′-Dimethyl-N-(Iodoacetyl)-N′-(7-Nitrobenz-2-Oxa-1,3-Diazol-4-yl)Ethylenediamine (IANBD amide, Thermo Fisher) and is referred to as F197NBD. Labeling was carried out as previously described[43],[61]. Both labeled mutants were assessed to be functionally similar to wild-type arrestin-1 using the Extra Meta II assay, which determines the ability of arrestin-1 to bind and stabilize the active Meta II form of rhodopsin[64].
Under dim-red light, samples were prepared that contained nonphosphorylated rhodopsin (10 µM) in ROS membranes, 1 µM arrestin-1 I72B or F197NBD, ±100 µM peptide in 50 mM HEPES, 130 mM NaCl, pH 7 (150 or 200 µl sample volume). One hundred microliters of the sample was used for fluorescence measurements, and the remainder was used for the centrifugal pull-down assay (50 µl per assay). Steady-state fluorescence measurements were performed using a SPEX Fluorolog (1680) instrument in front-face mode. Bimane fluorescence was recorded using an excitation wavelength of 400 nm and emission 424–600 nm, and NBD fluorescence was recorded using an excitation wavelength of 500 nm and emission 524–660 (2 nm step size, 0.5 s integration per point). Excitation slits were narrowed to 0.1−0.2 nm to minimize light-activation of rhodopsin, and emission slits were set at 4 nm. Pull-down analysis was performed by centrifuging samples at 16,000 × g for 10 min at 20 °C. Selected samples were light activated (>495 nm) for 15 s prior to centrifugation (appr. 60 s delay time). Following centrifugation, the supernatants were removed, and the pellets were solubilized in loading buffer containing 2% SDS and subjected to SDS PAGE. Bands were visualized using Coomassie Brilliant Blue.

arrestin-1 = experiment: [15N,1H]TROSY NMR titration of arrestin-1 with peptide; format: binding, bovine; details: peptide:arrestin-1 up to 10:1
Description: ^2H,^15N,^13C-labeled arrestin-1 aliquots were thawed quickly under running water, transferred to 30 kDa-cutoff Vivaspin (0.5 ml, Sartorius) centrifugal spin concentrators, and concentrated to approximately 600 μM. The concentrator was immediately transferred into a beaker filled with 400 ml of NMR buffer 1 or 2 (see below) carried by a floatation device. The dialysis was performed at 4 °C overnight. On the next day the concentration was determined by UV absorbance at 280 nm (molar extinction coefficient 26,360/mol/cm). […] The dialysis was performed at 4 °C overnight, and the peptide concentration was determined by its absorbance at 205 nm (molar extinction coefficient: 54,310/mol/cm). […]
NMR measurements were performed on Bruker Avance III-HD 600 or 900 MHz spectrometer using a CTCI cryo-cooled probehead. […] Pulse lengths were calibrated for ^1H manually and for ^13C/^15N using an in-house automated procedure. pH was monitored using the position of the phosphate signal in NMR buffer 2 as an internal reference and varied by no more than 0.03 pH units during peptide titration experiments. [^15N,^1H]TROSY experiments were recorded with internal ETH pulse sequences, whereas 3D triple resonance TROSY experiments were recorded using the manufacturer’s pulse sequences. […]

Sequence: CDDEASTTVSKTETSQVAPA [5P, multiply phosphorylated rhodopsin C-terminus peptide lacking key site pS343]
- ternary complex formation (arrestin-1, nonphosphorylated rhodopsin, peptide) [1]: significant reduction of ternary complex formation; also recorded: could still stimulate ternary complex formation
- NMR chemical shift / peak changes in arrestin-1 (in words) (arrestin-1): minimal chemical shift changes
